The test system of assay [1] is endothelial ERK (HUVEC). The conditions noted are these: Xia et al. 1998; cited from earlier work.
In assay [2] the test system is endothelial ERK (HUVEC). Description: ERK activation assay (Western blot with phospho-ERK Ab). Format: cell-based, human. The conditions noted are these: for endothelial ERK activation by direct treatment of endothelial monolayer: HUVEC treated 15 min, no neutrophils, anti-phospho-ERK Western blot. Here is the method: A, Endothelial cells treated with 0.4 ng/ml TNFα (TNF), 30 ng/ml interleukin-4 (IL-4), 20 ng/ml oncostatin-M (OsM), 100 ng/ml PMA, or medium alone (Nil) for 15 minutes were assayed for Erk activation. Western blots shown were carried out using an anti-phospho-Erk Ab to detect activated Erk. Equal amounts of protein were loaded onto each lane. B, HUVEC were activated with TNFα for 4 hours or left unstimulated. After washing, either medium containing IL-8 (−) or neutrophils pre-treated with 1 nM IL-8 (+) were added at a 10:1 ratio of neutrophils to HUVEC and Erk activation assayed after 15 min at 37° C. Western blots shown were carried out using antibodies to phospho-Erk (upper panel) or reprobed with an anti-Erk polyclonal antibody after membranes were stripped (lower panel).
A, Neutrophils, untreated or incubated with a β2 integrin functional blocking antibody, TS1/18 (50 μg/ml), for 20 min at room temperature were added to HUVEC in the presence of 1 nM fMLP for 15 min. HUVEC monolayers were then analysed for Erk activation by Western blotting with an anti-phospho-Erk Ab. B, Neutrophils, untreated or treated with the TS1/18 Ab as in A, were added to 96-well tissue culture dishes in the presence or absence of 1 nM fMLP and neutrophil adhesion was determined. The data is presented as the percentage of neutrophil remaining adherent relative to that added (% adhesion). By ANOVA comparing +/−TS1/18, p=0.0002, n=3.
Resting HUVEC monolayers incubated with medium (nil), neutrophils (N) or neutrophil conditioned medium (CM), were analysed for Erk activation by Western blotting with an anti-phospho-Erk Ab. A, Neutrophils were stimulated for 15 minutes with 1 nM fMLP and then divided into two aliquots. One aliquot was centrifuged and the top 2/3 taken, carefully avoiding the cellular pellet, and added as conditioned medium (CM). The other aliquot was resuspended and 2/3 taken and added as the equivalent amount of neutrophil preparation (N). B. Conditioned media from neutrophils treated with 1 or 100 nM fMLP (prepared as in A) were added to HUVEC either undiluted (neat) or after diluting 1 in 3 (1/3) in medium. […]
HUVEC (10^6 cells/well) were seeded in 6-well tissue culture dishes. […] Protein concentration was determined using the Bradford reagent (BioRad) and equal amounts of protein loaded onto a 7.5% SDS polyacrylamide gel. […] Total ERK present was determined by stripping the filter and re-blotting with an antibody against ERK 1/2.
We therefore investigated whether ERK activation in the endothelium may be occurring under the conditions of the transmigration assay and which parameter(s) present in the assay system were responsible for its activation. Initially, the role of the inducers, TNFα and fMLP, used in the transmigration assay were assessed. […]
(A western blot detects proteins with antibodies after separation by electrophoresis.)

Assay [3] concerns neutrophil adhesion to TNFα-activated endothelium. Description: Neutrophil adhesion assay on HUVEC monolayer. Format: cell-based, human. Here is the method:
(§1) A, Chemotaxis assay using neutrophils pretreated for 20 min at room temperature with 30 μM PD98059 or DMSO. Chemotaxis was stimulated by the presence of 10 nM fMLP, or 1 nM IL-8 in the lower chamber; medium alone served as a control (nil). The data represent one of three experiments, each performed in triplicate. ANOVA looking for an effect of PD98059 compared to DMSO on chemotaxis gave p=0.359. B, Confluent HUVEC monolayers were stimulated with TNFα for 4 h, with PD98059 or DMSO added in the final 30 min. The extent of neutrophil adhesion to the endothelium was determined using a standard adhesion assay. The data is presented as the percentage of neutrophil remaining adherent relative to that added (% adhesion). The results represent one of three experiments, each performed in triplicate. (p=0.238, t-test comparing DMSO+TNF with PD+TNF).
Adhesion assays were performed as previously described (Gamble, J. R., Y. Khew-Goodall, and M. A. Vadas. 1993. J Immunol. 150:4494-4503) with the exception that neutrophils were used. […] After washing the cells were stained with Rose Bengal and total numbers of adherent neutrophils determined by densitometry. The number of adherent neutrophils was computed from a standard curve and expressed as a percentage of the neutrophils added. […]

Assay [4] relates to neutrophil transmigration across a confluent monolayer of cultured human umbilical vein endothelial cells (HUVEC). In words: Neutrophil transmigration assay across HUVEC monolayer on Transwells. Format: cell-based. Here is the method: FIG. 1 is a graphical representation of inhibitors that act on MEK inhibit neutrophil transmigration across endothelium. A, Confluent HUVEC monolayers plated (5×10^4 cells/well) on Transwells were either unstimulated or activated with TNFα (4 ng/ml) for 4 hours. Thirty min prior to the assay some monolayers were treated with PD98059 (45 μM) or DMSO control. Neutrophils (5×10^5 cells/well) were added with either PD98059 or DMSO. Transmigration was assayed across TNFα-activated endothelium (TNF) and unstimulated endothelium with (fMLP) or without (Nil) a gradient of 10 nM fMLP. The assays were carried out in triplicate and 1 representative of 5 experiments shown. An ANOVA was performed looking for an effect of PD98059 compared to DMSO on transmigration: in this experiment p<0.0001 and in the overall series p<0.0001. B, Endothelial monolayers were treated as in A, but the concentration of PD98059 was varied as indicated. The data are presented as percentage of transmigration relative to that across unstimulated endothelium. One representative experiment of 7, each performed in triplicate, is shown. […] C, Endothelial cells on Transwells were left unstimulated or activated with TNFα as in A. Using the standard protocol, U0126 or its solvent, DMSO, were added to the monolayers 30 min prior to the experiment, and then added with the neutrophils. The results from one of two experiments, each performed in triplicate, is shown.
This was performed as previously described using Transwells (6.5 mm diameter, […] pore size, Costar, Cambridge, Mass.) on 24 well culture trays (Smith et al., 1991, supra). Briefly, 5×10^4 HUVEC (between passages 2 and 5) were seeded in the upper chamber of each Transwell pre-coated with fibronectin (50 μg/mL for 30 minutes) and the cells were grown at 37° C. in 5% CO2 supplemented air to form a confluent monolayer. Neutrophils were added at 5×10^5 cells/well to the top chamber and where indicated chemoattractant was added to the lower chamber. The neutrophils were incubated at 37° C. for 1 h after which the number that had transmigrated into the lower chamber were collected and counted. Transmigration is expressed as a percentage of neutrophils added.
Neutrophils were counted using one of two methods. Neutrophils retrieved from the lower compartment were either counted directly using a Coulter counter (Model ZF, Coulter, Herts, UK) or using an indirect colourimetric assay based on the conversion of a tetrazolium salt (MTT) to a formazan. Briefly, MTT (0.2 mg/ml, Sigma, St. Louis, […].) was added to the lower chamber and incubated for 4 hours at 37° C. The neutrophils were pelleted by centrifugation, the pellets resuspended in 200 μl acid isopropanol for an hour and the absorbance at 550 nm determined. A standard curve was constructed by serial dilution of the neutrophil preparation and the percentage of neutrophils transmigrating was calculated from this. The two methods used produced results of good fit (least squares fit regression analysis, >95% confidence) (data not shown).
To identify signalling pathways in the endothelium that are essential for neutrophil transmigration, a screen for their effects on transmigration was carried out using pharmacological inhibitors of various signalling pathways (data not shown). The studies were performed using an in vitro model of neutrophil transmigration across a confluent monolayer of cultured human umbilical vein endothelial cells (HUVEC). Transmigration induced by an exogeneously added chemoattractant gradient and across TNFα-activated endothelium were both examined. […] In general, transmigration across TNFα-activated endothelium was inhibited to a greater extent than transmigration across a gradient of fMLP, with 70-80% inhibition of transmigration across TNFα-activated endothelium compared to only 40-50% inhibition of transmigration across an fMLP gradient. The inhibitory effects of PD98059 were also confirmed using a second MEK inhibitor, U0126 (FIG. 1C).

A further assay relates to neutrophil chemotaxis. Description: Neutrophil chemotaxis assay (Transwells, no HUVEC monolayer). Format: cell-based, human. As to conditions: 30 μM PD98059 vs DMSO. How it is done:
as §1
Chemotaxis assays were performed using Transwells essentially as in the transmigration assay except that the HUVEC monolayer was omitted. In addition, instead of pre-coating the upper chamber with fibronectin, the lower chamber was pre-coated with gelatin to prevent adhesion of neutrophils. […] Neutrophils that had migrated through the filters after 1 hour incubation at 37° C. were counted. Counts are expressed as a percentage of the total number of cells added. […]

“Also recorded” adds a separate entry of the source.

For the molecule TNFα, the “fold activation of ERK (earlier observations)” value in the assay on endothelial ERK (HUVEC) [1] is reported as 1.5-2.0 fold. For the same molecule, in the assay on endothelial ERK (HUVEC) [2], the “endothelial ERK activation by direct treatment of endothelial monolayer” value (“endothelial ERK activation” for short) is “marginally activated ERK”. The “neutrophil adhesion to endothelium after treatment of the endothelium” value in assay [3] (TNFα treatment of HUVEC, 4 h) is reported as “stimulated neutrophil adhesion”.

In the case of `N#CC(=C(/N)Sc1ccccc1N)/C(C#N)=C(\N)Sc1ccccc1N` [U0126], the “effect on neutrophil transmigration across TNFα-activated endothelium” value in assay [4] (TNFα-activated HUVEC) is recorded as “inhibited transmigration across TNFα-activated endothelium to a similar extent as PD 98059”. In assay [4] (unstimulated HUVEC), the “effect on neutrophil transmigration induced by a chemoattractant (fMLP) gradient” value was “showed greater potency against fMLP-driven transmigration”.

Take `COc1cccc(-c2cc(=O)c3ccccc3o2)c1N` [PD98059]: in assay [4] (TNFα-activated HUVEC), the “effect on neutrophil transmigration across TNFα-activated endothelium” value is “inhibit in a dose-dependent manner”. In assay [4] (TNFα-activated HUVEC, inhibitor added 30 min before and with neutrophils, 1 h), the “inhibition of transmigration across TNFα-activated endothelium” value is recorded as 70-80%. Further, in assay [4] (unstimulated HUVEC), the “effect on neutrophil transmigration induced by a chemoattractant (fMLP) gradient” value is “inhibit in a dose-dependent manner”. Moreover, the “inhibition of transmigration across an fMLP gradient” value in assay [4] (unstimulated HUVEC, fMLP gradient (10 nM), 1 h) was 40-50%. In addition, in assay [3] (HUVEC stimulated with TNFα 4 h, inhibitor in final 30 min), the “neutrophil adhesion to TNFα-activated endothelium in presence of inhibitor” value was “not significantly affected”. The IL-8-stimulated neutrophil chemotaxis entry in the assay with neutrophil chemotaxis (1 nM IL-8 in lower chamber) is listed as “not significantly affected”. In the assay with neutrophil chemotaxis (10 nM fMLP in lower chamber), the fMLP-stimulated neutrophil chemotaxis result is “not significantly affected”.

On to `CSCC[C@H](NC=O)C(=O)N[C@@H](CC(C)C)C(=O)N[C@@H](Cc1ccccc1)C(=O)O` [fMLP, N-formyl-methionyl-leucinyl-phenylalanine], for which the “endothelial ERK activation” value with endothelial ERK (HUVEC) [2] was “did not activate endothelial ERK; also recorded: had no effect on endothelial ERK activation”. Besides, the “induction of the ERK-activating factor in neutrophils” value in the assay on endothelial ERK (HUVEC) [2] (conditioned media of stimulated neutrophils added to HUVEC, phospho-ERK read-out) is listed as “induced the ERK-activating factor”.

B1: IL-4: interleukin-4 (protein, UniProt P05112 25-153, looked up)
Interleukin-4: HKCDITLQEIIKTLNSLTEQKTLCTELTVTDIFAASKNTTEKETFCRAATVLRQFYSHHEKDTRCLGATAQQFHRHKQLIRFLKRLDRNLWGLAGLNSCPVKEANQSTLENFLERLKTIMREKYSKCSS
On to B1, for which the “endothelial ERK activation” value in the assay with endothelial ERK (HUVEC) [2] is “marginally activated ERK”.

(Values after patent US20070116687A1, “Method of modulating cellular transmigration and agents for use therein” (Medvet Science PTY, Ltd., priority 2003, published 2007).)
